In patent US20210338654A1 (priority 2019, published 2021):
Where “and” joins values, the source holds several entries; their conditions need not be identical. Equal entries are not always repeated.

Assays:
[1] = system: breakthrough migraine in patients treated with botulinum toxin (Botox); details: human, in vivo
patients with migraine = details: in vivo
[2] = system: breakthrough migraine in patient treated with fremanezumab; details: human, in vivo
[3] = system: migraine attack of moderate or severe intensity in adults; format: in vivo, human
[4] = system: breakthrough migraine in patients treated with erenumab-aooe; details: human, in vivo

Molecule: CN(C)CCc1c[nH]c2ccc(C[C@H]3COC(=O)N3)cc12 [Zomig®, reference compound]
- effect on migraines (patient history) [1]: would decrease in intensity but they would not attain freedom from pain within 24 hrs

Molecule: N[C@@H]1c2cccnc2[C@H](OC(=O)N2CCC(n3c(=O)[nH]c4ncccc43)CC2)CC[C@H]1c1cccc(F)c1F [Rimegepant, [(5S,6S,9R)-5-amino-6-(2,3-difluorophenyl)-6,7,8,9-tetrahydro-5H-cyclohepta[b]pyridin-9-yl] 4-(2-oxo-3H-imidazo[4,5-b]pyridin-1-yl)piperidine-1-carboxylate]
- incidence of serum ALT or AST >3×ULN (patients with migraine; human): 1.0%
- Hy's Law cases (patients with migraine): no Hy's Law cases identified
- liver cases assessed as probably related to study drug (patients with migraine): no liver cases assessed as probably related to study drug
- liver safety signal (patients with migraine): no liver safety signal detected to date
- mean reduction in headaches/month (patients with migraine): 4 days
- patients with at least 30% reduction in monthly number of headache days (patients with migraine): Approximately 40%
- adverse effects from treatment [1]: did not report any adverse effects
- need for rescue medication [1]: did not require any rescue medications or additional doses of rimegepant
- number of headache days (parent report) [1]: noticeable reduction in the number of headache days
- relief from breakthrough migraine headache [1]: obtained relief from the migraine headache without the need to take other medications
- resolution of Botox induced headache [1]: completely resolved within an hour
- time to full resolution of headache [1]: ≤ 1 h
- time to pain relief [1]: within a half an hour
- migraine breakthroughs successfully treated [2]: three migraine breakthroughs that were successfully treated
- N. Censored (no pain score of none by 495 minutes postdose, censored at 496 minutes) ([3]; N = 537): 139
- Freedom from most bothersome symptom at two hours postdose, Common Risk ([3]; in vivo): 41.2%
- Freedom from most bothersome symptom at two hours postdose, Free from MBS n/N ([3]; in vivo): 31/89 and 171/448 and 202/537
- Freedom from most bothersome symptom at two hours postdose, Stratum Risk ([3]; in vivo): 40.3% and 41.4%
- Pain freedom at two hours postdose, Common Risk ([3]; in vivo): 20.2%
- Pain freedom at two hours postdose, No Pain n/N ([3]; in vivo): 14/89 and 91/448 and 105/537
- Pain freedom at two hours postdose, Risk Difference Rimegepant vs Placebo ([3]; in vivo): 7.82 and 7.36 and 7.91
- Pain freedom at two hours postdose, Stratum Risk ([3]; in vivo): 16.7% and 20.9%
- Preference of Medication response [4]: Much better, I prefer this medication.
- Satisfaction with Medication (SM) response [4]: Very satisfied.
- acute treatment of breakthrough migraine, outcome [4]: effective
- adverse events [4]: no adverse events
- adverse events related to treatment [4]: no adverse events related to treatment
- adverse events while receiving rimegepant alone (streptococcal pharyngitis, considered unrelated) [4]: 1
- rating versus previous treatments [4]: much better
- relief from breakthrough migraine headache [4]: obtained relief from the migraine headache without the need to take other medications
- satisfaction with rimegepant at end-of-study visit [4]: very satisfied

B1: erenumab (antibody, chains of the INN, looked up, V domains shown)
VH: QVQLVESGGGVVQPGRSLRLSCAASGFTFSSFGMHWVRQAPGKGLEWVAVISFDGSIKYSVDSVKGRFTISRDNSKNTLFLQMNSLRAEDTAVYYCARDRLNYYDSSGYYHYKYYGMAVWGQGTTVTVSS
VL: QSVLTQPPSVSAAPGQKVTISCSGSSSNIGNNYVSWYQQLPGTAPKLLIYDNNKRPSGIPDRFSGSKSGTSTTLGITGLQTGDEADYYCGTWDSRLSAVVFGGGTKLTVL
- decline in monthly migraine days (MMDs) [4]: 46%
- monthly migraine days of any pain intensity after starting erenumab [4]: 7 MMDs
